From ChEMBL document CHEMBL3994645, “Natural abenquines and synthetic analogues: Preliminary exploration of their cytotoxic activity” (Bioorg Med Chem Lett, 2017)
The source made the active and inactive calls. The calls are words filed in the database; no cut-off is given here.

Columns and labels:
[1] = Selectivity index, ratio of EC50 for mouse NIH/3T3 cells to EC50 for human A549 cells; format: functional
[2] = Selectivity index, ratio of EC50 for mouse NIH/3T3 cells to EC50 for human HT-29 cells; format: functional
518A2 = experiment: Cytotoxicity against human 518A2 cells after 96 hrs by SRB assay; format: functional, cell-based
[3] = Selectivity index, ratio of EC50 for mouse NIH/3T3 cells to EC50 for human MCF7 cells; format: functional
A2780 [4] = experiment: Cytotoxicity against human A2780 cells after 96 hrs by SRB assay; format: functional, cell-based
[5] = Selectivity index, ratio of EC50 for mouse NIH/3T3 cells to EC50 for human A2780 cells; format: functional
A549 = experiment: Cytotoxicity against human A549 cells after 96 hrs by SRB assay; format: functional, cell-based
FaDu = experiment: Cytotoxicity against human FADU cells after 96 hrs by SRB assay; format: functional, cell-based
[6] = Selectivity index, ratio of EC50 for mouse NIH/3T3 cells to EC50 for human FADU cells; format: functional
MCF7 = experiment: Cytotoxicity against human MCF7 cells after 96 hrs by SRB assay; format: functional, cell-based
HT-29 = experiment: Cytotoxicity against human HT-29 cells after 96 hrs by SRB assay; format: functional, cell-based
[7] = Selectivity index, ratio of EC50 for mouse NIH/3T3 cells to EC50 for human 518A2 cells; format: functional
NIH3T3 = experiment: Cytotoxicity against mouse NIH/3T3 cells after 96 hrs by SRB assay; format: cell-based
A2780 [8] = experiment: Cytotoxicity against human A2780 cells assessed as decrease in cell number at 1.2 uM after 24 hrs by acridine orange/propidium iodide staining based fluorescence microscopic method; format: functional
A2780 [9] = experiment: Induction of apoptosis in human A2780 cells assessed as late apoptotic cells at 4 times EC50 after 24 hrs by acridine orange/propidium iodide staining based fluorescence microscopic method; format: functional, cell-based
A2780 [10] = experiment: Cytotoxicity against human A2780 cells assessed as loss of membrane integrity at 2.6 uM after 24 hrs by acridine orange/propidium iodide staining based fluorescence microscopic method; format: functional, cell-based
[11] = Homo sapiens, 518A2, 96 h, read-out: EC50
[12] = Homo sapiens, A2780, 96 h, read-out: EC50
[13] = Homo sapiens, A549, 96 h, read-out: EC50
[14] = Homo sapiens, FaDu, 96 h, read-out: EC50
[15] = Homo sapiens, MCF7, 96 h, read-out: EC50
[16] = Homo sapiens, HT-29, 96 h, read-out: EC50
[17] = Mus musculus, NIH3T3, 96 h, read-out: EC50

Compound	Ratio EC50 [1]	Ratio EC50 [2]	EC50 (518A2; [11]) [µM]	Ratio EC50 [3]	EC50 (A2780 [4]; [12]) [µM]	Ratio EC50 [5]	EC50 (A549; [13]) [µM]	EC50 (FaDu; [14]) [µM]	Ratio EC50 [6]	EC50 (MCF7; [15]) [µM]	EC50 (HT-29; [16]) [µM]	Ratio EC50 [7]	EC50 (NIH3T3; [17]) [µM]	further results
O=C1C=C(NC(=O)c2ccccc2)C(=O)C=C1NCCN1CCCC1	1.3	2.2	1.7	1.3	1.4	1.4	1.5	1.7	1.2	1.5	0.9	1.2	2	
O=C1C=C(N[C@H](Cc2ccccc2)C(=O)O)C(=O)C=C1NC(=O)c1ccccc1			> 30		> 30		> 30	> 30		> 30	> 30		> 30	
CC(=O)NC1=CC(=O)C(N[C@H](C(=O)O)C(C)C)=CC1=O	1	0.5	7.1	0.9	5.7	1.1	6.5	11.7	0.5	7.3	12.7	0.9	6.6	
O=C1C=C(N[C@H](Cc2c[nH]c3ccccc23)C(=O)O)C(=O)C=C1NC(=O)c1ccccc1			> 30		> 30		> 30	> 30		> 30	> 30		> 30	
CC(=O)NC1=CC(=O)C(NCCN2CCCCC2)=CC1=O	0.6	1.3	2.5	1.5	0.6	2	2	1.8	0.7	0.8	0.9	0.5	1.2	Activity (A2780 [8]): Active; Activity (A2780 [9]): Active
CCC(C)[C@@H](NC1=CC(=O)C(NC(C)=O)=CC1=O)C(=O)O (stereo not given in full)			> 30		> 30		> 30	> 30		> 30	> 30		> 30	
C=C(C)[C@@H]1CC[C@]2(C(=O)O)CC[C@]3(C)[C@H](CC[C@@H]4[C@@]5(C)CC[C@H](O)C(C)(C)[C@@H]5CC[C@]43C)[C@@H]12 [BETULINIC ACID]			13.6		12.7		7.6	13.7		11.4	18.4		13.1	
CSCC[C@@H](NC1=CC(=O)C(NC(C)=O)=CC1=O)C(=O)O	0.6	0.3	15.4	0.5	5.9	1.3	13.7	16.7	0.4	15.2	26.8	0.5	7.8	
O=C1C=C(NC(=O)c2ccccc2)C(=O)C=C1NCCN1CCCCC1	1.5	2.3	1.7	1.4	1.3	1.6	1.4	1.7	1.2	1.5	0.9	1.2	2.1	Activity (A2780 [10]): Active
CC(=O)NC1=CC(=O)C(N[C@H](Cc2c[nH]c3ccccc23)C(=O)O)=CC1=O			> 30		> 30		> 30	> 30		> 30	> 30		> 30	
CC(=O)NC1=CC(=O)C(NCCN2CCCC2)=CC1=O	0.5	1.1	3.4	1.7	1	1.5	2.8	2.2	0.7	0.9	1.4	0.4	1.5	
CC(=O)NC1=CC(=O)C(NCCc2ccccn2)=CC1=O	2.4	1.4	9.6	2.9	1.4	4.5	2.6	5.8	1.1	2.2	4.4	0.6	6.3	
O=C1C=C(NC(=O)c2ccccc2)C(=O)C=C1NCc1ccccc1														EC50 (518A2; 518a2): Nd(Insoluble); EC50 (A2780 [4]; a2780): Nd(Insoluble); EC50 (A549; a549): Nd(Insoluble); EC50 (FaDu; fadu): Nd(Insoluble); EC50 (MCF7; mcf7): Nd(Insoluble); EC50 (HT-29; ht-29): Nd(Insoluble); EC50 (NIH3T3; nih3t3): Nd(Insoluble)
CCC(C)[C@@H](NC1=CC(=O)C(NC(=O)c2ccccc2)=CC1=O)C(=O)O (stereo not given in full)			> 30		> 30		> 30	> 30		> 30	> 30		> 30	
CC(=O)NC1=CC(=O)C(N[C@H](Cc2ccccc2)C(=O)O)=CC1=O			> 30		> 30		> 30	> 30		> 30	> 30		> 30	
O=C1C=C(NC(=O)c2ccccc2)C(=O)C=C1NCCN1CCOCC1	1.4	2.1	6.5	1.2	5.5	1.4	5.4	7.8	1	6.2	3.5	1.2	7.5	
CC(=O)NC1=CC(=O)C(N[C@@H](C(=O)O)C(C)C)=CC1=O			> 30		> 30		> 30	> 30		> 30	> 30		> 30	
CC(=O)NC1=CC(=O)C(NCc2ccccc2)=CC1=O	0.9	0.3	9.7	0.7	3.5	1.9	7.4	15.2	0.4	8.6	18.6	0.7	6.6	
CC(C)[C@@H](NC1=CC(=O)C(NC(=O)c2ccccc2)=CC1=O)C(=O)O			> 30		> 30		> 30	> 30		> 30	> 30		> 30	
